Reference: patent US7888386B2, “3-(phenoxyphenylmethyl)pyrrolidine compounds” (Theravance, Inc., priority 2008, dated 2011)
Like-named read-outs stand apart in the source and are kept apart here.

What was measured:
hSERT = target: T1, hSERT (Homo sapiens, UniProt P31645); test: hSERT binding assay (Assay 1)
T1 construct: expressed in transfected cells; host or cells: HEK-293 derived cell line, stably transfected; membrane preparation
Method: (§1) Membrane radioligand binding assays were used to measure competitive inhibition of labeled ligand (^3H-citalopram or ^3H-nisoxetine or ^3H-WIN35428) binding to membranes prepared from cells expressing the respective human recombinant transporter (hSERT or hNET or hDAT) in order to determine the pKi values of test compounds at the transporters.
(§2) Recombinant human embryonic kidney (HEK-293) derived cell lines stably transfected with hSERT or hNET, respectively, were grown in DMEM medium supplemented with 10% dialyzed FBS (for hSERT) or FBS (for hNET), 100 μg/ml penicillin, 100 μg/ml streptomycin, 2 mM L-glutamine and 250 μg/ml of the aminoglycoside antibiotic G418, in a 5% CO2 humidified incubator at 37° C. When cultures reached 80% confluence, the cells were washed thoroughly in PBS (without Ca^2+ and Mg^2+) and lifted with 5 mM EDTA in PBS. Cells were pelleted by centrifugation, resuspended in lysis buffer (10 mM Tris-HCl, pH 7.5 containing 1 mM EDTA), homogenized, pelleted by centrifugation, then resuspended in 50 mM Tris-HCl, pH 7.5 and 10% sucrose at 4° C. Protein concentration of the membrane suspension was determined using a Bio-Rad Bradford Protein Assay kit. Membranes were snap frozen and stored at −80° C. Chinese hamster ovary membranes expressing hDAT (CHO-DAT) were purchased from PerkinElmer and stored at −80° C.
(§3) Stock solutions (10 mM in DMSO) of test compound were prepared and serial dilutions made using Dilution Buffer (50 mM Tris-HCl, 120 mM NaCl, 5 mM KCl, pH 7.4, 0.1% BSA, 400 μM ascorbic acid).
(§4) Following a 60 minute incubation at 22° C. (or a period sufficient to reach equilibrium), the membranes were harvested by rapid filtration over a 96-well UniFilter GF/B plate, pretreated with 0.3% polyethyleneimine, and washed 6 times with 300 μl wash buffer (50 mM Tris-HCl, 0.9% NaCl, pH 7.5 at 4° C.). Plates were dried overnight at room temperature, ˜45 μl of MicroScint™-20 (Perkin Elmer) added and bound radioactivity quantitated via liquid scintillation spectroscopy. Competitive inhibition curves and saturation isotherms were analyzed using GraphPad Prism Software package (GraphPad Software, Inc., San Diego, Calif.). IC50 values were generated from concentration response curves using the Sigmoidal Dose Response (variable slope) algorithm in Prism GraphPad.

hNET = target: T2, hNET (Homo sapiens, UniProt P23975); test: hNET binding assay (Assay 1); details: read-out: NET pKi (converted)
T2 construct: expressed in transfected cells; host or cells: HEK-293 derived cell line, stably transfected; membrane preparation
T2 sequence (P23975 whole entry): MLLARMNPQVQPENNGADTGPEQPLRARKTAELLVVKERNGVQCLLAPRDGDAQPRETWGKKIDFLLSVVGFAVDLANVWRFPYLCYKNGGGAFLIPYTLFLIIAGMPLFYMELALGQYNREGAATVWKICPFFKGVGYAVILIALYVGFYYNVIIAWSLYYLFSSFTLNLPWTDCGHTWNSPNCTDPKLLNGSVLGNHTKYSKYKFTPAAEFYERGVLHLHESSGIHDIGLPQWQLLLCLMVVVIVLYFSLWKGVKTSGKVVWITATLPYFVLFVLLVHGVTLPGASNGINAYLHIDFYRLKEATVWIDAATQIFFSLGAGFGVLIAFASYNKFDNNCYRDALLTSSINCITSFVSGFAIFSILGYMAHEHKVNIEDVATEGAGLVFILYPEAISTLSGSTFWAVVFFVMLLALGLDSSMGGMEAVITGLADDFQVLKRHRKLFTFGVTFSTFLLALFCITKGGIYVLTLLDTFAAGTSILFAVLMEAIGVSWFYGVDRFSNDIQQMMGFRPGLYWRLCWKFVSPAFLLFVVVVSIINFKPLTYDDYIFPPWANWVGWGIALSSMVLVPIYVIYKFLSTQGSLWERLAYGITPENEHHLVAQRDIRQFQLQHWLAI
Method: as §1, §2, §3, §4

[1] = ratio of SERT Ki to NET Ki from binding assays
[2] = ratio of SERT Ki to NET Ki (binding)
[3] = ratio of binding Ki at hSERT to Ki at hNET, rounded off to the nearest tenth
[4] = membranes of HEK-293 cells expressing hNET, 1.0 nM 3H-nisoxetine

T1 sequence (P31645 whole entry): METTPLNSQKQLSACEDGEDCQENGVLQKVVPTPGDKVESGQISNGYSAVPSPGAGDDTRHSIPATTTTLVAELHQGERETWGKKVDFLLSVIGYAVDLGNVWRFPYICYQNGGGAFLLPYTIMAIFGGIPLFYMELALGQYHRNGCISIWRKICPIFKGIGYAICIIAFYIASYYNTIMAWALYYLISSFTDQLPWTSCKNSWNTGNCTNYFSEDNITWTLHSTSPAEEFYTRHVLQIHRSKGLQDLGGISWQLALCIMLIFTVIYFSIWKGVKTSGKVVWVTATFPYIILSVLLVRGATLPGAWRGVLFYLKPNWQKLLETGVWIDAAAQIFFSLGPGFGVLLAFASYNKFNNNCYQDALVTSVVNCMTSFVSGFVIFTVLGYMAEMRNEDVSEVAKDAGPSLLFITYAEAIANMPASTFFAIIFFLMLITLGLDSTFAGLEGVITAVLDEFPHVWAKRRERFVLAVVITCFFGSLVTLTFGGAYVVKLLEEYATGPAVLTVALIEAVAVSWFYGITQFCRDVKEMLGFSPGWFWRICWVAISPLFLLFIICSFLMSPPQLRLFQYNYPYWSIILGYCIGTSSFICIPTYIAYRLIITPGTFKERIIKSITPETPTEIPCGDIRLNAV

| SMILES | SERT Ki/NET Ki (hSERT; [1]) | Ki (hNET; hNET binding assay) [nM] | other results |
| --- | --- | --- | --- |
| Fc1ccc(F)c(OC(c2ccccc2)C2CCNC2)c1 (racemic) [29-1] | 4 | 2 | – |
| Clc1cc(Cl)c(Cl)c(O[C@H](c2ccccc2Cl)[C@@H]2CCNC2)c1 (racemic) [39-4] | – | – | SERT Ki/NET Ki (hSERT; [2]): 0.1; Ki (hNET; hNET binding): 3.98 nM |
| Cc1cc(F)cc([C@@H](Oc2c(Cl)ccc(C)c2Cl)[C@@H]2CCNC2)c1 (racemic) [41-23] | – | – | SERT Ki/NET Ki (hSERT; [2]): 0.5; Ki (hNET; hNET binding): 1.58 nM |
| Cc1ccc(Cl)c(O[C@@H](c2cc(F)cc(F)c2)[C@@H]2CCNC2)c1Cl (racemic) [41-25] | – | – | SERT Ki/NET Ki (hSERT; [2]): 0.2; Ki (hNET; hNET binding): 6.31 nM |
| Cc1ccc(Cl)c(OC(c2cc(F)cc(F)c2)C2CCNC2)c1Cl (racemic) [41-26] | – | – | SERT Ki/NET Ki (hSERT; [2]): 1.3; Ki (hNET; hNET binding): 0.501 nM |
| Cc1cccc([C@@H](Oc2ccccc2Cl)[C@@H]2CCNC2)c1 (racemic) [Compound 20-6] | – | – | SERT Ki/NET Ki (hSERT; [3]): 1.6; Ki (hNET; [4]): 3.98 nM |
| COc1ccccc1O[C@H](c1cccc(Cl)c1)[C@@H]1CCNC1 (racemic) [Compound 20-20] | – | – | SERT Ki/NET Ki (hSERT; [3]): 13; Ki (hNET; [4]): 2.51 nM |
| COc1ccccc1O[C@@H](c1cc(F)cc(F)c1)[C@@H]1CCNC1 (racemic) [Compound 20-31] | – | – | SERT Ki/NET Ki (hSERT; [3]): 6.3; Ki (hNET; [4]): 5.01 nM |
| COc1ccccc1OC(c1cc(F)cc(F)c1)C1CCNC1 (racemic) [Compound 20-32] | – | – | SERT Ki/NET Ki (hSERT; [3]): 10; Ki (hNET; [4]): 0.794 nM |
| COc1ccccc1O[C@@H](c1cc(C)cc(F)c1)[C@H]1CCNC1 (racemic) [Compound 20-36] | – | – | SERT Ki/NET Ki (hSERT; [3]): 7.9; Ki (hNET; [4]): 1.26 nM |
| COc1ccccc1O[C@@H](c1cc(C)cc(F)c1)[C@@H]1CCNC1 (racemic) [Compound 20-37] | – | – | SERT Ki/NET Ki (hSERT; [3]): 13; Ki (hNET; [4]): 6.31 nM |
| Fc1ccc(Oc2cccc(O[C@H](c3ccccc3)[C@@H]3CCNC3)c2)cc1 (racemic) [Compound 21-15] | – | – | SERT Ki/NET Ki (hSERT; [3]): 1; Ki (hNET; [4]): 2 nM |
| Cc1c(F)cccc1OC(c1ccccc1)C1CCNC1 (racemic) [Compound 25-17] | – | – | SERT Ki/NET Ki (hSERT; [3]): 0.2; Ki (hNET; [4]): 2.51 nM |
| CC(=O)c1ccccc1O[C@H](c1ccccc1)[C@@H]1CCNC1 (stereo in doubt) [Ex. 9-3, 1-[2-((R)-phenyl-(S)-pyrrolidin-3-yl-methoxy)phenyl]ethanone] | – | – | SERT Ki/NET Ki (hSERT; [3]): 50; Ki (hNET; [4]): 3.16 nM |
| Cc1ccc(OC(c2ccccc2)C2CCNC2)c(Cl)c1 (stereo not shown) [27-10] | 0.8 | 0.631 | – |
| Cc1cc(F)ccc1OC(c1ccccc1)C1CCNC1 (stereo not shown) [27-13] | 0.3 | 3.16 | – |
| Cc1cc(F)ccc1O[C@@H](c1ccccc1)[C@H]1CCNC1 [27-14] | 0.3 | 2 | – |

| SMILES | SERT Ki/NET Ki (hSERT; [1]) | Ki (hNET; hNET binding assay) [nM] | other results |
| --- | --- | --- | --- |
| FC(F)(F)c1cc(Cl)ccc1OC(c1ccccc1)C1CCNC1 (stereo not shown) [27-21] | 0.6 | – | – |
| CCc1cc(F)ccc1OC(c1ccccc1)C1CCNC1 (stereo not shown) [27-23] | 0.8 | 1 | – |
| COc1cc(F)ccc1OC(c1ccccc1)C1CCNC1 (stereo not shown) [27-25] | 4.6 | 0.794 | – |
| Cc1ccc(OC(c2ccccc2)C2CCNC2)c([N+](=O)[O-])c1 (stereo not shown) [27-33] | 1.6 | – | – |
| COC(=O)c1cc(Cl)ccc1OC(c1ccccc1)C1CCNC1 (stereo not shown) [27-34] | 4 | 2.51 | – |
| CCOC(=O)c1cc(Cl)ccc1O[C@@H](c1ccccc1)[C@H]1CCNC1 [27-36] | 0.6 | 3.98 | – |
| N#Cc1cccc([C@H](Oc2ccc(Cl)cc2F)[C@H]2CCNC2)c1 [28-3] | 0.5 | 6.31 | – |
| Fc1cc(F)cc(C(Oc2ccc(Cl)cc2F)C2CCNC2)c1 (stereo not shown) [28-9] | 0.3 | 3.16 | – |
| Fc1cc(Cl)cc(C(Oc2ccc(Cl)cc2F)C2CCNC2)c1 (stereo not shown) [28-11] | 0.8 | 2.51 | – |
| Cc1cc(F)cc(C(Oc2ccc(Cl)cc2F)C2CCNC2)c1 (stereo not shown) [28-13] | 0.5 | 5.01 | – |
| CCc1cc(F)ccc1OC(c1cc(F)cc(F)c1)C1CCNC1 (stereo not shown) [28-14] | 3.2 | 1.58 | – |
| COc1cc(F)ccc1OC(c1cc(F)cc(F)c1)C1CCNC1 (stereo not shown) [28-17] | 25 | 0.398 | – |
| COc1cc(Cl)ccc1O[C@@H](c1cc(F)cc(F)c1)[C@H]1CCNC1 [28-19] | 0.8 | 1 | – |
| Fc1ccc(F)c(O[C@@H](c2ccccc2)[C@H]2CCNC2)c1 [29-2] | 32 | 1.26 | – |
| Fc1ccc(F)c(O[C@H](c2ccccc2)[C@@H]2CCNC2)c1 [29-3] | 0.5 | 7.94 | – |
| Fc1ccc(Cl)cc1OC(c1ccccc1)C1CCNC1 (stereo not shown) [29-4] | 1.6 | 1.26 | – |
